Data set [1] concerns Huh7, HepG2, BxPC3, or CEM cells. Briefly: Cell cytotoxicity assay (MTS). Format: cell-based. Particulars: Table 3; cell line not stated. As for the experimental part: (§1) Cell cytotoxicity assays. Each compound (serially diluted from 100 μM) was added to Huh7 (2×10^3 cells/well), HepG2 (2×10^3 cells/well), BxPC3 (2×10^3 cells/well), or CEM (5×10^3 cells/well) cells and allowed to incubate for 8 days at 37° C. A medium only control was used to determine the minimum absorbance value […]. At the end of the growth period, MTS dye from the CellTiter 96 Aqueous One Solution Cell Proliferation Assay kit (Promega) was added to each well and the plate was incubated for an additional 2 hours. The absorbance at 490 nm was read with a Victor3 plate reader (Perkin Elmer) using the medium only control wells as blanks. The 50% inhibition value (CC50) was determined by comparing the absorbance in wells containing cells and test compound to untreated cell control wells.

Data set [2] has as its system Dengue 2 strain New Guinea C. The experiment in a line: Dengue CPE assay. Format: cell-based, Dengue virus 2. As to conditions: Table 6, BHK-21 cells, 3 days, 50% cells surviving, read-out: EC50, activity against dengue virus. As for the experimental part:
Dengue CPE Assay. To measure cytopathic effect of Dengue virus 2, BHK-21 ([…], CCL-10 ATCC Manassas, Va.) cells were seeded at a density of 20,000 cells/well in a 96-well black/clear bottom plates (Becton Dickinson, Franklin Lakes, N.J.) one day prior to start of the assay and allowed to attach overnight in EMEM (ATCC Manassas, Va.) +10% FBS (Invitrogen, Carlsbad, Calif.) at 37° C. in a humidified 5% CO2 atmosphere. The next day, the medium was removed and the cells were infected with Dengue 2 strain New Guinea C (VR-1584, ATCC Manassas, Va.) at an MOI of 0.08 pfu/cell for two hours in 50 μL EMEM+2% FBS. For both the single point and dose response assays, compounds (2× concentration) were diluted in EMEM+2% FBS and 50 μL was added to infected cells without removing virus. Cells were incubated for 3 days at 37° C. in a humidified 5% CO2 atmosphere. The medium was aspirated and 50 μL of CellTiter-Glo (Promega, Madison, Wis.) was added to each well and read for 0.1 seconds on a Perkin Elmer Victor3 (Waltham, Mass.) plate reader. Percent survival was determined by subtracting the average value of infected control wells and normalizing to the non-infected wells. The effective concentration was calculated from the dose response data by forecasting 50% cells surviving with drug treatment.

Another data set concerns HCV replicon. The experiment in a line: HCV replicon assay (Clone A cells and ET-lunet cells, HCV RNA by real time PCR). The format is cell-based, hepatitis C virus. Particulars: Table 3, HCV 1b replicon; for pEC50: read-out: EC50, anti-HCV 1b activity; for EC90: read-out: EC90, anti-HCV 1b activity. As for the experimental part:
HCV replicon assay. HCV replicon assays using Clone A cells and ET-lunet cells were performed as described previously. L. J. Stuyver et al. Antimicrob. Agents Chemother. 2004, 48, 651-654. Briefly, Clone A cells and ET-lunet cells were seeded at a density of 1500 and 3000 cells per well in a 96-well plate, respectively. Test compounds serially diluted in culture medium without G418 were added to cells. Plates were incubated at 37° C. in a 5% CO2 atmosphere for 4 days. Inhibition of HCV RNA replication was determined by quantitative real time PCR. See, e.g., L. J. Stuyver et al. Antiviral Chem. Chemother. 2006, 17, 79-87.
To express the antiviral effectiveness of a compound, the threshold RT-PCR cycle of the test compound was subtracted from the average threshold RT-PCR cycle of the no-drug control (ΔCtHCV). A ΔCt of 3.3 equals a 1-log 10 reduction (equal to the 90% effective concentration [EC90]) in replicon RNA levels. The cytotoxicity of the test compound could also be expressed by calculating the ΔCtrRNA values. The ΔΔCt specificity parameter could then be introduced (ΔCtHCV-ΔCtrRNA), in which the levels of HCV RNA are normalized for the rRNA levels and calibrated against the no-drug control.

Data set [3] can be described thus: Cytotoxicity reported with the dengue assay. The format is cell-based. Particulars: Table 6; cell line not stated.
The nature of data set [4]: Cell cytotoxicity assay (MTS). The format is cell-based. Particulars: human; Table 3; cell line not stated; read-out: CC50. As for the experimental part: as §1
Data set [5] addresses wild type NS5B Genotype 1b (Hepatitis C virus genotype 1b (isolate Con1) (HCV), UniProt Q9WMX2). Briefly: HCV NS5B polymerase reaction, wild type. The format is biochemical. Particulars: Table 5, nucleoside triphosphates.
Another data set addresses S282T NS5B Genotype 1b (Hepatitis C virus genotype 1b (isolate Con1) (HCV), UniProt Q9WMX2, S2701T). Briefly: HCV NS5B polymerase reaction, S282T mutant. Format: biochemical. As to conditions: Table 5, nucleoside triphosphates. How it is done: The HCV NS5B reaction was performed in a 20 μL mixture containing varying concentrations of the test compound, 1 μM of all four natural ribonucleotides, [α-^32P]UTP, 20 ng/μL of genotype 1b (−) IRES RNA template, 1 unit/μL of SUPERase•In (Ambion, Austin, Tex.), 40 ng/μL of wild type or S282T NS5B Genotype 1b, 1 mM MgCl2, 0.75 mM MnCl2, and 2 mM DTT in 50 mM Hepes buffer (pH 7.5). The reaction was quenched by adding 80 μL of stop solution (12.5 mM EDTA, 2.25 M NaCl, and 225 mM sodium citrate) after incubating at 27° C. for 30 minutes. The radioactive RNA products were separated from unreacted substrates by passing the quenched reaction mixture through a Hybond N+ membrane (GE Healthcare, Piscataway, N.J.) using a dot-blot apparatus. The RNA products were retained on the membrane and the free nucleotides were washed out. The membrane was washed 4 times with a solution containing 0.6 M NaCl and 60 mM sodium citrate. After rinsing the membrane with water followed by ethanol, the membrane was exposed to a phosphorscreen and the products were visualized and quantified using a phosphorimager. The IC50 values were calculated using GraFit program version 5 (Erithacus Software, Horley, Surrey, UK). All the reactions were done in duplicate and the results were reported as IC50±standard error.

pEC50, pIC50: −log10 of the molar value. Where two headings read alike, the source gives them in different places. Where only a bound is given, the exact number is not on record here.

Chain of S282T NS5B Genotype 1b (Q9WMX2 2420-3010 S2701T): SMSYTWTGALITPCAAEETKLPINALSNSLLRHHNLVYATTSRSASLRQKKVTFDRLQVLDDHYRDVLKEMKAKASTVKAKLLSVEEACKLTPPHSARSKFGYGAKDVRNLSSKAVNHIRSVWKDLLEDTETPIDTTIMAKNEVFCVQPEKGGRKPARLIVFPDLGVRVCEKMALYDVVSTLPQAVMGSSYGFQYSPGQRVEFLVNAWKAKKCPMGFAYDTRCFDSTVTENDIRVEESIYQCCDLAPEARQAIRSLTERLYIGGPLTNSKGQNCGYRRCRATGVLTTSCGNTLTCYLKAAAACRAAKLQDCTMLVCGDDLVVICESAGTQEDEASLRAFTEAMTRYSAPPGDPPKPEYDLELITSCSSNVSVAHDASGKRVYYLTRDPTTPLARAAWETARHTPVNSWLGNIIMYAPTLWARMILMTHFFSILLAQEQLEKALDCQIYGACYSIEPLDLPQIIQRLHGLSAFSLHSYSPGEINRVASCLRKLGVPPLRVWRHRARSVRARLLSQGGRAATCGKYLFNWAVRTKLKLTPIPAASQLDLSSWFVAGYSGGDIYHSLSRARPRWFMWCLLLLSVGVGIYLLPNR
Chain of wild type NS5B Genotype 1b (Q9WMX2 2420-3010): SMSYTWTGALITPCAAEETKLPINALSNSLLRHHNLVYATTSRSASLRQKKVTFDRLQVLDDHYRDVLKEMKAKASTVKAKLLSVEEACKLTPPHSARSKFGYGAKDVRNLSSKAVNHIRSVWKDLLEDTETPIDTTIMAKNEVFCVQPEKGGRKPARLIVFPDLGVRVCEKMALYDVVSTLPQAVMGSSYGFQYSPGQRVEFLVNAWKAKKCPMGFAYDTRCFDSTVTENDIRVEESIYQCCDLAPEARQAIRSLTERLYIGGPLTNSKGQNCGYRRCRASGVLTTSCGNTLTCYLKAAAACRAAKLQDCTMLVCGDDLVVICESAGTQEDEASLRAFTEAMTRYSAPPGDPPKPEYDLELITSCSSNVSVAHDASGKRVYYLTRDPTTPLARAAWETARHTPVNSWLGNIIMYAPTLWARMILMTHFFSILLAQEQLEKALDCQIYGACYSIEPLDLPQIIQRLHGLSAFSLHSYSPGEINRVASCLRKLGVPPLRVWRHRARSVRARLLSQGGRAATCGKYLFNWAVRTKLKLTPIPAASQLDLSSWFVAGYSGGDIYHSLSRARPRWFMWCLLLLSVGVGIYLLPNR

With `COc1nc(N)nc2c1ncn2C1OC(COP(=O)(N[C@@H](C)C(=O)OC(C)C)Oc2ccccc2)[C@@H](O)[C@]12CCO2` (some centres unmarked) [compound 119], the CC50 in data set [1] and in data set [3] was above 20 µM throughout. Also, the pEC50 in data set [2] (Dengue virus, BHK-21, 72 h) was 5.06; in the data set on HCV replicon, 5.34. Moreover, the EC90 in the data set on HCV replicon was above 20 µM.

For the compound `COc1nc(N)nc2c1ncn2C1OC(COP(=O)(N[C@@H](C)C(=O)OCC(C)(C)C)Oc2ccccc2)[C@@H](O)[C@]12CCO2` (some centres unmarked) [compound 120], in data set [4], the CC50 at 8 days is above 20 µM. In addition, the pEC50 in data set [2] (Dengue virus, BHK-21, 72 h) is 5.73. In addition, in the data set on HCV replicon, the pEC50 is 6.41 and the EC90 was 0.676 µM. This compound displayed a CC50 in data set [3] above 20 µM.

Take `COc1nc(N)nc2c1ncn2C1OC(COP(=O)(N[C@@H](C)C(=O)OCC(C)(C)C)Oc2ccccc2)[C@@H](O)[C@]12CCO2` (some centres unmarked) [compound 121]: the CC50 in data set [1] and in data set [3] was above 20 µM each time. Moreover, the pEC50 in data set [2] is 5.65; in the data set on HCV replicon, 5.03. The EC90 in the data set on HCV replicon worked out at 18.5 µM.

With `CCOC(=O)[C@H](C)NP(=O)(OCC1OC(n2cnc3c(OC)nc(N)nc32)[C@@]2(CCO2)[C@@H]1O)Oc1ccccc1` (some centres unmarked) [compound 122], the CC50 at 8 days in data set [4] was above 20 µM. For the same compound, in data set [2] (Dengue virus, BHK-21, 72 h), the pEC50 was 5.23. In addition, in the data set with HCV replicon (Hepatitis C virus), the pEC50 was 6.07 and the EC90 amounted to 3 µM. Further, the CC50 in data set [3] is above 20 µM.

Turning to `COc1nc(N)nc2c1ncn2C1OC(COP(=O)(N[C@@H](C)C(=O)OCC(C)(C)C)Oc2cccc3ccccc23)[C@@H](O)[C@]12CCO2` (some centres unmarked) [compound 123], the CC50 at 8 days in data set [4] was above 20 µM. Further, the pEC50 is 5.76 in data set [2] (Dengue virus, BHK-21, 72 h) and 6.51 in the data set on HCV replicon (Hepatitis C virus). Further, in the data set with HCV replicon (Hepatitis C virus), the EC90 was determined as 0.853 µM. Also, in data set [3], the CC50 was above 20 µM.

With `COc1nc(N)nc2c1ncn2C1OC(COP(=O)(N[C@@H](C)C(=O)OCC(C)C)Oc2ccccc2)[C@@H](O)[C@]12CCO2` (some centres unmarked) [compound 124], in data set [4], the CC50 at 8 days was above 20 µM. Besides, the pEC50 is 5.66 in data set [2] (Dengue virus, BHK-21, 72 h) and 6.25 with HCV replicon. Besides, the EC90 with HCV replicon was found to be 1.81 µM. Besides, in data set [3], the CC50 is above 20 µM.

Turning to `COc1nc(N)nc2c1ncn2C1OC(COP(=O)(N[C@@H](C)C(=O)OCC(C)C)Oc2ccccc2)[C@@H](O)[C@]12CCO2` (some centres unmarked) [compound 125], the CC50 in data set [1] and in data set [3] was above 20 µM throughout. Besides, the results for the pEC50 (in data set [2]; in the data set on HCV replicon) were 5.70 and 5.35, respectively. In addition, the EC90 in the data set on HCV replicon came to 8.45 µM.

Regarding `CCCCOC(=O)[C@H](C)NP(=O)(OCC1OC(n2cnc3c(OC)nc(N)nc32)[C@@]2(CCO2)[C@@H]1O)Oc1ccccc1` (some centres unmarked) [compound 126], the CC50 at 8 days in data set [4] was above 20 µM. For the same compound, the pEC50 is 5.63 in data set [2] (Dengue virus, BHK-21, 72 h) and 6.56 in the data set with HCV replicon. For the same compound, in the data set on HCV replicon, the EC90 is 0.7 µM. Also, the CC50 in data set [3] was above 20 µM.

Regarding `CCCCOC(=O)[C@H](C)NP(=O)(OCC1OC(n2cnc3c(OC)nc(N)nc32)[C@@]2(CCO2)[C@@H]1O)Oc1ccccc1` (some centres unmarked) [compound 127], the CC50 in data set [1] and in data set [3] was above 20 µM throughout. Moreover, the results for the pEC50 (in data set [2]; in the data set on HCV replicon) were 5.79 and 5.51, respectively. In the data set with HCV replicon, the EC90 is 6.45 µM.

For the compound `COc1nc(N)nc2c1ncn2C1OC(COP(=O)(N[C@@H](C)C(=O)OC2CCCC2)Oc2ccccc2)[C@@H](O)[C@]12CCO2` (some centres unmarked) [compound 128], in data set [4], the CC50 at 8 days is above 20 µM. Also, the pEC50 in data set [2] (Dengue virus, BHK-21, 72 h) is 5.55. Also, in the data set on HCV replicon (Hepatitis C virus), the pEC50 is 6.35 and the EC90 was found to be 1.09 µM. In data set [3], this compound displayed a CC50 above 20 µM.

As to `COc1nc(N)nc2c1ncn2C1OC(COP(=O)(N[C@@H](C)C(=O)OC2CCCC2)Oc2ccccc2)[C@@H](O)[C@]12CCO2` (some centres unmarked) [compound 129], the CC50 in data set [1] and in data set [3] was above 20 µM throughout. For the same compound, the pEC50 in data set [2] is 5.63; in the data set on HCV replicon it was 6.17. Further, in the data set on HCV replicon, the EC90 came out at 1.97 µM.

Consider `COc1nc(N)nc2c1ncn2C1OC(COP(=O)(N[C@@H](C)C(=O)OCc2ccccc2)Oc2ccccc2)[C@@H](O)[C@]12CCO2` (some centres unmarked) [compound 130], for which the CC50 at 8 days in data set [4] is above 20 µM. Also, the pEC50 in data set [2] is 5.42. In the data set on HCV replicon (Hepatitis C virus), the pEC50 is 5.06 and the EC90 stood at 15.1 µM. The CC50 in data set [3] was above 20 µM.

Take `COc1nc(N)nc2c1ncn2C1OC(COP(=O)(N[C@@H](C)C(=O)OCc2ccccc2)Oc2ccccc2)[C@@H](O)[C@]12CCO2` (some centres unmarked) [compound 131]: the CC50 in data set [1] and in data set [3] was above 20 µM each time. Moreover, the results for the pEC50 (in data set [2]; in the data set on HCV replicon) were 5.83 and 4.93, respectively. The EC90 in the data set on HCV replicon was above 20 µM.

For the compound `O=c1ccn(C2OC(CO)[C@@H](O)[C@@]23CCCO3)c(=O)[nH]1` (some centres unmarked) [compound 135], the pIC50 in data set [5] was below 4.00.

Regarding `O=c1ccn(C2OC(CO)[C@@H](O)[C@]23CCO3)c(=O)[nH]1` (some centres unmarked) [compound 136], the pIC50 in data set [5] was 4.40; at S282T NS5B Genotype 1b, below 4.00.

For the compound `Nc1ccn(C2OC(CO)[C@@H](O)[C@]23CCCO3)c(=O)n1` (some centres unmarked) [compound 137], the results for the pIC50 (in data set [5]; against S282T NS5B Genotype 1b) were below 4.34 and below 4.00, respectively.

Compound `Nc1ccn(C2OC(CO)[C@@H](O)[C@@]23CCCO3)c(=O)n1` (some centres unmarked) [compound 138] showed a pIC50 in data set [5] below 4.00.

The compound `Nc1ccn(C2OC(CO)[C@@H](O)[C@@]23CCO3)c(=O)n1` (some centres unmarked) [compound 139] had a pIC50 in data set [5] below 4.00.

Turning to `Nc1ccn(C2OC(CO)[C@@H](O)[C@]23CCO3)c(=O)n1` (some centres unmarked) [compound 140], the pIC50 in data set [5] was below 5.07; against S282T NS5B Genotype 1b, 4.25.

The term CC50 denotes the concentration that lowers cell viability or growth by half. For orientation: pEC50 means the EC50 on a negative log10 scale, so that one unit is a factor of ten. For orientation: EC90 means the point of the concentration-response curve where the effect stands at 90%. Broadly, the pIC50 is the negative decadic logarithm of the IC50, by convention in mol/L. A higher pIC50 goes with a low IC50.

Source of the values: patent US9394331B2, “2′-spiro-nucleosides and derivatives thereof useful for treating hepatitis C virus and dengue virus infections” (priority 2010, dated 2016).
